Common to all, as to type: functional, cell-based
Settings in all cases: CV-1

The target of experiment [1] is Vitamin D3 receptor (Homo sapiens) (UniProt P11473). The experiment is described as follows: Agonist activity at VP16-VDR expressed in african green monkey CV1 cells co-expressing MH100 up to 10 uM by luciferase reporter gene assay relative to control. A general note: In a reporter assay the amount or activity of a reporter protein is the signal.
The target is the same in experiment [2]. The experiment is described as follows: Agonist activity at VP16-VDR expressed in african green monkey CV1 cells co-expressing MH100 by luciferase reporter gene assay.
In experiment [3] the target is Oxysterols receptor LXR-beta (Homo sapiens) (UniProt P55055). The experiment is described as follows: Agonist activity at LXRbeta expressed in african green monkey CV1 cells co-expressing LXRE up to 10 uM by luciferase reporter gene assay relative to control.
Oxysterols receptor LXR-beta (Homo sapiens), sequence (P55055 whole entry): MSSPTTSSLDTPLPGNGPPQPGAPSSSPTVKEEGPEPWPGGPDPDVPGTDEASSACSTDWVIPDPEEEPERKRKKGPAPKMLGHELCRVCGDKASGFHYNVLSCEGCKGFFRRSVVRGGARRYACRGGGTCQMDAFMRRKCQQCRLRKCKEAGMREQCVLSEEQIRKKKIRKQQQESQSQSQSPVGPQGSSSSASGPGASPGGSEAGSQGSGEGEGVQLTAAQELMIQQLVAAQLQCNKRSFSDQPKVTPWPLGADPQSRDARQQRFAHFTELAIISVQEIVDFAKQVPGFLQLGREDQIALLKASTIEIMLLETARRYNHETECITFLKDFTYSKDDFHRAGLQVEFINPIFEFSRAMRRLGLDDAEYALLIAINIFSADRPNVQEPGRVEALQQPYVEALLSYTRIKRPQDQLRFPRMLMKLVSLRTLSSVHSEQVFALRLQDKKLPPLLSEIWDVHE
Experiment [4] has as its target T1, Progesterone receptor (Homo sapiens) (UniProt P06401).
T1 sequence (whole entry): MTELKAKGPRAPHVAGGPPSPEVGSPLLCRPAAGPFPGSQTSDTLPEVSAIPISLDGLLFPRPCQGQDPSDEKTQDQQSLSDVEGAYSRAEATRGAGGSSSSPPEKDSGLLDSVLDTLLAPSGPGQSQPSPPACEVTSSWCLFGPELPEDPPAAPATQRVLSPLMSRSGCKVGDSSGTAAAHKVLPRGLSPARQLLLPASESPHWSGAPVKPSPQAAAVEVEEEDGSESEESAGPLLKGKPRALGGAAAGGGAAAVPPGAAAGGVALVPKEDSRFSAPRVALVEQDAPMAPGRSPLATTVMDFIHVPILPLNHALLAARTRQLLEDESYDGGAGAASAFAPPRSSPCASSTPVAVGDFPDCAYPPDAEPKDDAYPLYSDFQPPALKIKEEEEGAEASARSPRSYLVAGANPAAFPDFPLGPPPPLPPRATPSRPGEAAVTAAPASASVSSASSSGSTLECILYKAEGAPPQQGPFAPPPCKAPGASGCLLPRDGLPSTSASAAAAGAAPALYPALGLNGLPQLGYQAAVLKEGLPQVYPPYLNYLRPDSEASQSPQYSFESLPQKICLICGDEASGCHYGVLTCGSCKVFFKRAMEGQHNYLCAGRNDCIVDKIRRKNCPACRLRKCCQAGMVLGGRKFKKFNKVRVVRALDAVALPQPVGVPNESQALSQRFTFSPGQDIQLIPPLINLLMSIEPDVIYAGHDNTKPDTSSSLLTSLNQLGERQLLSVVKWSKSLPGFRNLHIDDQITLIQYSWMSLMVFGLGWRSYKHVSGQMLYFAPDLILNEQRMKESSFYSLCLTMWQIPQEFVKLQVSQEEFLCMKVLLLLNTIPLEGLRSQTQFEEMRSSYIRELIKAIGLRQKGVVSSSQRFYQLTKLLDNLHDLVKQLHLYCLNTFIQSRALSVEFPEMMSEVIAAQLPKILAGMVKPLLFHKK
Kind of experiment: Agonist activity at gal-PR expressed in african green monkey CV1 cells co-expressing MH100 by luciferase reporter gene assay.

Experiment [5] concerns the target T2, Peroxisome proliferator-activated receptor alpha (Homo sapiens) (UniProt Q07869).
T2 sequence (whole entry): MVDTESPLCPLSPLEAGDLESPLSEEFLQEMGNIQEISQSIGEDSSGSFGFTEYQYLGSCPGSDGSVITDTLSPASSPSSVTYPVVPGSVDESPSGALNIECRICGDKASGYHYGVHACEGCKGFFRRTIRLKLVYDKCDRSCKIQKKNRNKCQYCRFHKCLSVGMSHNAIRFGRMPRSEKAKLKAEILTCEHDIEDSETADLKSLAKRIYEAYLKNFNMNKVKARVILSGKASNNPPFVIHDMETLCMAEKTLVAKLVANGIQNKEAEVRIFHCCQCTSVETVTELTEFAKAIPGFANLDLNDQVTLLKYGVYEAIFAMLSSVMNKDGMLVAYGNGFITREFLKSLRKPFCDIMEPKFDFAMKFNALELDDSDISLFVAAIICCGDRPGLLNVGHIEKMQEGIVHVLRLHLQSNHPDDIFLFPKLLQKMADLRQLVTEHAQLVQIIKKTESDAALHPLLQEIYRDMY
The experiment is described as follows: Agonist activity at PPARalpha expressed in african green monkey CV1 cells co-expressing MH100 by luciferase reporter gene assay.

Experiment [6] deals with T3, Glucocorticoid receptor (Homo sapiens) (UniProt P04150).
T3 sequence (whole entry): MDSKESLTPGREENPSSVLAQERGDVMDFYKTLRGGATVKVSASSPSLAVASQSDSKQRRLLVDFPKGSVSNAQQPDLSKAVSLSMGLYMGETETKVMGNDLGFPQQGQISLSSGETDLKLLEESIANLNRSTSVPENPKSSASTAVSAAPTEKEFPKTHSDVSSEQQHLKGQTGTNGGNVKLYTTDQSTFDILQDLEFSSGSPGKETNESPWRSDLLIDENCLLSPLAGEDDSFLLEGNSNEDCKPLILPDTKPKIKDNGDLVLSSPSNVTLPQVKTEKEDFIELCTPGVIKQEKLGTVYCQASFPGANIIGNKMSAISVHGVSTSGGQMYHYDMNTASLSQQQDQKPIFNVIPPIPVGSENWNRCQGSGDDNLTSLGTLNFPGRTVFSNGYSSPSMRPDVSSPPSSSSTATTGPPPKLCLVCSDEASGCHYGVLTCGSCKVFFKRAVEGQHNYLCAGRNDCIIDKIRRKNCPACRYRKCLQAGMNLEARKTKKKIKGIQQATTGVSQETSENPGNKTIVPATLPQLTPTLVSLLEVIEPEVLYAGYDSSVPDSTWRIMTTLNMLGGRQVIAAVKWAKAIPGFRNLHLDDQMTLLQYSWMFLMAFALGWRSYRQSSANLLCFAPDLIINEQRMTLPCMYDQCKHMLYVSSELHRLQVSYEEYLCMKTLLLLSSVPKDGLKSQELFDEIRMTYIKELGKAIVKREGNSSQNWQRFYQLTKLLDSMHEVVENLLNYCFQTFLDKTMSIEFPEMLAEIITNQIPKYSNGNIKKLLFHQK
Kind of experiment: Antagonist activity at gal-GR expressed in african green monkey CV1 cells co-expressing MH100 at 10 uM by luciferase reporter gene assay.

The target of experiment [7] is T4, Peroxisome proliferator-activated receptor delta (Homo sapiens) (UniProt Q03181).
T4 sequence (whole entry): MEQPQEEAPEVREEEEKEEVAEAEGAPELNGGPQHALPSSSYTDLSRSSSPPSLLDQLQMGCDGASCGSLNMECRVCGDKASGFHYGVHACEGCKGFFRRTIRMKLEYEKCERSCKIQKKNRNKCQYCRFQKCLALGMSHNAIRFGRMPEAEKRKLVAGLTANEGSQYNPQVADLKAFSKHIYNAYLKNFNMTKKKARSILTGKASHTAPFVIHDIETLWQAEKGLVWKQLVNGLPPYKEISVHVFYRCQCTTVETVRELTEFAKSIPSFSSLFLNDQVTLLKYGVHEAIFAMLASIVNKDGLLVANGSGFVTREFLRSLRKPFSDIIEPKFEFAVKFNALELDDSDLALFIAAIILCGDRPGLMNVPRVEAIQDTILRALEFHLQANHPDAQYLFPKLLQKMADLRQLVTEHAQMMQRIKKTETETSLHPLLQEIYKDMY
Kind of experiment: Agonist activity at PPARdelta expressed in african green monkey CV1 cells co-expressing MH100 up to 10 uM by luciferase reporter gene assay relative to control.

The source made the active and inactive calls. The calls are words filed in the database; no cut-off is given here.

Vitamin D3 receptor (Homo sapiens), sequence (P11473 whole entry): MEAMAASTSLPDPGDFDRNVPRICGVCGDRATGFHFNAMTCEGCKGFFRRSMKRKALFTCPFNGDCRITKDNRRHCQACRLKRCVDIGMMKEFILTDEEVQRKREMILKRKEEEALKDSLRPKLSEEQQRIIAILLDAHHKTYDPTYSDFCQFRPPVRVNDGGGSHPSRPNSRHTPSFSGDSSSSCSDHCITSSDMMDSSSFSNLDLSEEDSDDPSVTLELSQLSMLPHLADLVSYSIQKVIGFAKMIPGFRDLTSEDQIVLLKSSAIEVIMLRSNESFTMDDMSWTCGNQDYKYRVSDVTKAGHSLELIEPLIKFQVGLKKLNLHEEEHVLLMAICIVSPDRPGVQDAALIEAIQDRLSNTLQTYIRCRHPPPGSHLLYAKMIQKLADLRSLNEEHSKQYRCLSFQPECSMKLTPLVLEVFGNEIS

Broadly, the inhibition is the relative decrease from the control value, in per cent. With `CC(C)OC(=O)C1=CN(C(=O)c2ccc(F)c(F)c2)CC(C)(C)c2c1[nH]c1ccccc21` [TUROFEXORATE ISOPROPYL], the result in experiment [1], in experiment [2], in experiment [3], in experiment [4], in experiment [5] and in experiment [7] was inactive. The inhibition in experiment [6] is 35%.

(Values after ChEMBL document CHEMBL1140941 (J Med Chem, 2009).)
